The results in this text go back to patent US9888679B2, “Protection of progenitor cells and regulation of their differentiation” (Proteobioactives Pty Ltd, priority 2007, dated 2018).

Test [1] concerns Murine ATDC5 cell line. The test is described as follows: Proteoglycan biosynthesis (35S-GAG) in pellet cultures. The following applies: 2 micrograms/mL; 6 day pellet culture; FIG. 12. The format is cell-based. An excerpt: FIG. 12. A bar graph of the concentration dependent effects of Pentosan Polysulfate (PPS), on the biosynthesis of Proteoglycans (PGs) as determined by the incorporation of radioactively labelled sulfate into the sulfated glycosaminoglycans (^35S-GAG) of PGs in 6 day pellet cultures of murine progenitor cells (ADTC-5). *=p<0.05 relative to control.
FIG. 22. A bar graph of the concentration dependent effects of rhNC4 (batch PBA-1202P) expressed by K. lactis, in the absence (maintenance media, MM) and presence of insulin (10 micrograms/mL) (differentiation media, DM), on the biosynthesis of Proteoglycans PGs) in pellet cultures of ATDC5 cells. Data is shown as the % change relative to controls taken to be 100%.
Murine Progenitor cells (cell lines C3H10T1/2 or ATDC5) purchased from RIKEN Cell Bank (Tsukuba, Japan) or human immunoselected Stro-1+ Progenitor cells (Mesoblast Ltd, Melbourne, Australia) were seeded in 2 ml screw-capped sterile centrifuge tubes and the total volume made-up to 1 ml with DMEM-High glucose medium containing 10% FBS. Progenitor cells were then centrifuged at 500 g for 10 min in a swing-out rotor at room temperature. The screw caps were loosened and the tubes placed in an incubator at 37° C., in a 5% CO2/95% air moist atmosphere. The pellets generally formed within 24 hours. Medium was changed daily in the first two days, then once every 2-3 days thereafter. On day 5 the medium was removed and to each tube was added 1 ml with DMEM-High glucose medium containing 10% FBS, 5.0 μCi/ml ^35S-H2SO4 and various concentrations of PPS (0, 0.1, 0.5, 1.0, 2.5, 5.0, 10.0, 20.0, μg/ml) (FIG. 12-15) or rhNC4 (0, 0.1, 0.5, 1.0, 2.0 μg/ml) (FIG. 22). Triplicate cultures were used for all concentration of drugs. The screw caps were loosened and the tubes placed in an incubator at 37° C., in a 5% CO2/95% moist air atmosphere […]. On day 6, 200 μl of stock papain solution [2.5 mg/ml papain, 7.9 mg/ml L-Cystein in papain buffer (0.1 M NaAC, 5 mM EDTA, pH6.0)] was added to each tube. The tubes were tightly capped and incubated at 65° C. for 2 hours. After papain digestion, 4 replicates of 200 μl of papain digested solution were separately transferred to a 96-well micro-titre plate (200 μl/well). The remaining solution was used for the DNA fluorometric assays which were undertaken in triplicate as described above. Biosynthesis of ^35S-GAGs was determined as described for the monolayer cultures and the results expressed as ^35-S-GAGs/μg DNA.
Data is shown as the % of controls taken to be 100%.

Test [2] has as its system human progenitor cells. Kind of test: Proteoglycan synthesis in micromass cultures, 5 days. The class given is cell-based. The following applies: FIG. 17. An excerpt:
FIG. 17. Bar graphs showing the concentration dependent effects of PPS on proteoglycan synthesis by human progenitor cells in micromass cultures for 5 days. Data is presented as 35S-GAG radioactivity and as a percentage of control taken as 100%. * P<0.05 relative to control.
FIG. 19. Bar graphs showing the concentration dependent effects of (A) Hyaluronan (Supartz™) and (B) Dextran Polysulfate on proteoglycan synthesis by human progenitor cells in micromass cultures for 5 days. Data is presented as ^35S-GAG radioactivity and as a percentage of control, taken as 100% or as DPM/ug DNA. * P<0.05 relative to control.
The technique used was based on that described by (Denker A E, Haas A R, Nicoll S B and Tuan R S. Chondrogenic differentiation of murine C3H10T1/2 multipotential progenitor cells: I. Stimulation by bone morphogenetic protein-2 in high density micromass cultures. Differentiation (1999); 64: 67-76). Briefly murine Progenitor cells (cell lines C3H10T1/2 or ATDC5) purchased from RIKEN Cell Bank (Tsukuba, Japan) or human immunoselected Stro-1+ Progenitor cells (Mesoblast Ltd, Melbourne, Australia) Ten microlitres (10 μl) of a suspension of the progenitor cells (1×10^7 cells/ml in Ham's F12 medium+10% FBS) were applied to individual wells of a 24-well plates. After incubatation at 37° C. in a humidified atmosphere of 5% CO2/95% air for 2-3 hours, 900 μl of Ham's F12 medium (10% FBS) and 100 μl of PPS solution in the same medium were added slowly into the wells to afford final concentrations of PPS in each of 0, 0.1, 0.5, 1.0, 2.5, 5.0, 10.0, 20.0 μg/ml alone or in combination with rhNC4 (0, 0.1, 0.5, 1.0, 2.5, 5.0, 10.0, 25.0 μg/ml). Each drug concentration was repeated in triplicate. The cells were maintained in culture for up to 10 days. The medium with/without drugs was changed every 3 days but 24 hours before termination of the experiment 80 μl of 50 μCi/ml ^35S-H2SO4 was added to achieve a final ^35SO4 concentration of 5 μCi/ml. The following day, the cells in one of the plates were trypsinized with 150 μl/well of 2.5% trypsin and separated from the medium by centrifugation at 800 g for 10 minutes, washed with 500 μl of 1×PBS and stored in liquid nitrogen for RNA and/or DNA extraction and analysis. Media and supernatants were combined in one tube for each concentration of PPS used. To the tubes was added, 200 μl of 5× Papain solution [2.5 mg/ml Papain, 7.9 mg/ml L-Cysteine in Papain buffer (0.1 M NaAC, 5 mM EDTA, pH6.0)] and the solution incubated at 65° C. for 2 hours. After papain digestion, Four aliquots of 200 μl of digested solution were transferred to a 96-well plate (200 μl/well). The ^35S-GAG released by the digestion step were separated from the free ^35SO4 by adding 20 μl 5% CPC and 10 μl 1 mg/ml CSA with gentle shaking at 300 rpm RT for 20-30 min to precipitate the ^35S-GAG-CPC complexes. The precipitates were collected by filtered through glass fibre filters using a cell harvester. The filters were then air-dried and discs punched to scintillation vials. 3 ml/vial scintillation cocktail liquid was added and vortexed for 30-45 sec. The radioactivity of ^35S—SO4 incorporated the ^35S-GAG-CPC complexes was measured by scintillation counting.
Data is presented as 35S-GAG radioactivity and as a percentage of control taken as 100%. * P<0.05 relative to control.
Similar experiments were undertaken using Hyaluronic acid (SuperArtz (SKK, Tokyo, Japan)) and Dextran polysulfate (MW=5000) (Sigma, Sydney, Australia) in place of PPS. […] Data is presented as 35S-GAG radioactivity and as a percentage of control taken as 100% or as DPM/ug DNA. * P<0.05 relative to control.

For pentosan polysulfate [PPS], in test [1], the “increase of proteoglycan (PG) synthesis relative to control culture” value amounted to 25%. Besides, in test [2] (2.5 micrograms/mL, 5 day micromass cultures), the “maximum stimulation of PG synthesis” value is 30%. Also, the proteoglycan synthesis entry in test [2] (PPS 0.5-10 μg/ml, 5 day micromass) was “Increased proteoglycan synthesis”.
